According to patent US20240182460A1, “ALLOSTERIC CHROMENONE INHIBITORS OF PHOSPHOINOSITIDE 3-KINASE (PI3K) FOR THE TREATMENT OF DISEASE” (PETRA PHARMA CORPORATION, priority 2022, published 2024):

Tests used:
PI3Kα H1047R = molecular target: T1, PI3Kα H1047R (Homo sapiens, UniProt P42336, H1047R); experiment: PI3Kα H1047R mutant in vitro cell based assay, MDA-MB-453 cells (AlphaLisa SureFire); details: MDA-MB-453 cell line, 0% FBS, 3 hours treatment
T1 construct: The MDA-MB-453 (ATCC-HTB-131) cell line (PI3Kα H1047R); host or cells: MDA-MB-453
Text: (§1) PI3K-Alpha Kinase (PI3Kα) Activity: Wild-Type PI3Kα, H1047R Mutant PI3Kα, and E545K Mutant PI3Kα In Vitro Cell Based Assays and Determination of IC50 Values for Inhibitors
(§2) The MDA-MB-453 (ATCC-HTB-131) cell line (PI3Kα H1047R) and MCF-7 (ATCC-HTB-22) cell line (PI3Kα E545K), MDA-MB-361 (ATCC-HTB-27) cell line (PI3Kα E545K), and SKBR3 (ATCC-HTB-30) cell line (wild type PI3Kα) were obtained from the American Type Culture Collection (Manassas, VA). MDA-MB-453 cells were maintained in Dulbecco's Modified Eagle Media (DMEM, Gibco 12430) supplemented with 10% Fetal Bovine Serum, heat inactivated (FBS HI, Gibco 10082), 1× non-essential amino acids (NEAA, Gibco 11140), 1 mM sodium pyruvate (Gibco 11360) and 1× Anti-Anti (Gibco 15240). MCF-7 cells were maintained in Minimum Essential Media (MEM) (Gibco 11095) supplemented with 10% Fetal Bovine Serum, heat inactivated (FBS HI, Gibco 10082), 1× non-essential amino acids (NEAA, Gibco 11140), 1 mM sodium pyruvate (Gibco 11360), 1× Anti-Anti (Gibco 15240) and 10 μg/mL human insulin (Sigma I 9278). MDA-MB-361 cells were maintained in Dulbecco's Modified Eagle Media (DMEM, Gibco 12430) supplemented with 20% Fetal Bovine Serum, heat inactivated (FBS HI, Gibco 10082), 1× non-essential amino acids (NEAA, Gibco 11140), 1 mM sodium pyruvate (Gibco 11360) and 1× Anti-Anti (Gibco 15240). SKBR3 cells were maintained in McCoy's 5A (Gibco 16600) supplemented with 10% Fetal Bovine Serum, heat inactivated (FBS HI, Gibco 10082), and 1× Anti-Anti (Gibco 15240). Cultures were maintained in a humidified incubator at 37° C. under 5% CO2/95% air.
(§3) For compound testing in 0% FBS, MDA-MB-453, MCF-7 and SKBR3 cells were seeded at a density of 1.5×10^4, 1.0×10^4, and 1.0×10^4 cells, respectively, per well in white 384-well plates in 20 μl of Minimum Essential Media (MEM) assay media with 1×NEAA, 1 mM sodium pyruvate, and 1 μg/mL human insulin (Sigma 19278) (Assay Medium); while MDA-MB-361 cells were seeded at a density of 1.5×10^4 per well in white 384-well plates in 20 μl Assay Medium without insulin. After plating, cells were allowed to attach overnight. Compounds dissolved in 10 mM stock solutions in DMSO were serially diluted 1:3 in DMSO to generate a 10-point dilution series and plated using an acoustic liquid handler system (Echo 550 Series Liquid Handler, Labcyte). A 5× intermediate compound dilution plate in MEM with 1×NEAA and 1 mM sodium pyruvate (150 μM starting compound concentration in 1.5% DMSO) was then prepared. Five μl of the intermediate serially diluted compounds were added to the cell plate to final concentrations ranging from […] in 0.3% DMSO. 0.3% DMSO alone was used to establish the maximum (MAX) signal and GDC-0032 at a final concentration of 1 μM was used as a reference compound for the minimum (MIN) signal. After 3 hours treatment, the medium was removed, and the cells were lysed in 10 μL of 1× SureFire Lysis buffer with shaking for 10 minutes at room temperature. The Acceptor Mix (Reaction Buffer 1+Reaction Buffer 2+Activation Buffer+SureFire Ultra Acceptor Beads) was prepared by diluting Activation buffer 25-fold in combined Reaction Buffer 1 and Reaction Buffer 2.
(§4) The Acceptor beads were diluted 50-fold in the combined Reaction Buffers. Five μL of Acceptor Mix was added to each well, the plate was sealed and covered with foil and incubated for 1 hour at room temperature. The Donor Mix (dilution buffer+SureFire Ultra Donor Beads) was prepared by diluting Donor Beads 50-fold in dilution buffer. Five μL of the Donor Mix was added to each well and the plate sealed and covered with foil and incubated for 1-2 hours at room temperature in the dark. The plates were read on a Neo2 plate reader instrument from Biotek using standard AlphaLisa settings.
(§5) Compounds were tested in duplicate and the % inhibition at each compound concentration was used to generate two dose response curves. One IC50 was generated using average % inhibition at each compound concentration. […]

PI3Kα E545K [1] = molecular target: T2, PI3Kα E545K (Homo sapiens, UniProt P42336, E545K); experiment: PI3Kα E545K mutant in vitro cell based assay, MCF-7 cells; details: MCF-7 cell line, 0% FBS, 3 hours treatment
Text: as §1, §2, §3, §4, §5

[2] = Metabolic stability and intrinsic clearance in human liver microsomes (MICS); assay type: in vitro ADME; details: human, microsomes, pH 7.4
How it was run: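 Parent depletion by LC-MS/MS, run in duplicate, gave in vitro t1/2 from the slope of ln(% remaining) versus time, converted to CLint (μL/min/mg protein). Incubations: 1 μM compound, microsomes at 0.5 mg/mL, pH 7.4 phosphate, 37° C, ±1 mM NADPH, timepoints 0.5, 5, 15, 30, 60 min.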

PI3Kα E545K [3] = molecular target: T2, PI3Kα E545K; experiment: PI3Kα E545K mutant in vitro cell based assay, MDA-MB-361 cells; design: MDA-MB-361 (ATCC-HTB-27) cell line (PI3Kα E545K); host or cells: MDA-MB-361; details: MDA-MB-361 cell line, 0% FBS, no insulin, 3 hours treatment
How it was run: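 Compound exposure lasted 3 hours, in duplicate 10-point 1:3 dilutions at 0.3% DMSO final, on overnight-attached MDA-MB-361 cells carrying PI3Kα E545K in insulin-free, 0% FBS MEM. Lysates read by SureFire AlphaLISA. Relative IC50 from 4-parameter logistic fit versus DMSO and 1 μM GDC-0032 controls.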

T1 sequence (P42336 whole entry H1047R): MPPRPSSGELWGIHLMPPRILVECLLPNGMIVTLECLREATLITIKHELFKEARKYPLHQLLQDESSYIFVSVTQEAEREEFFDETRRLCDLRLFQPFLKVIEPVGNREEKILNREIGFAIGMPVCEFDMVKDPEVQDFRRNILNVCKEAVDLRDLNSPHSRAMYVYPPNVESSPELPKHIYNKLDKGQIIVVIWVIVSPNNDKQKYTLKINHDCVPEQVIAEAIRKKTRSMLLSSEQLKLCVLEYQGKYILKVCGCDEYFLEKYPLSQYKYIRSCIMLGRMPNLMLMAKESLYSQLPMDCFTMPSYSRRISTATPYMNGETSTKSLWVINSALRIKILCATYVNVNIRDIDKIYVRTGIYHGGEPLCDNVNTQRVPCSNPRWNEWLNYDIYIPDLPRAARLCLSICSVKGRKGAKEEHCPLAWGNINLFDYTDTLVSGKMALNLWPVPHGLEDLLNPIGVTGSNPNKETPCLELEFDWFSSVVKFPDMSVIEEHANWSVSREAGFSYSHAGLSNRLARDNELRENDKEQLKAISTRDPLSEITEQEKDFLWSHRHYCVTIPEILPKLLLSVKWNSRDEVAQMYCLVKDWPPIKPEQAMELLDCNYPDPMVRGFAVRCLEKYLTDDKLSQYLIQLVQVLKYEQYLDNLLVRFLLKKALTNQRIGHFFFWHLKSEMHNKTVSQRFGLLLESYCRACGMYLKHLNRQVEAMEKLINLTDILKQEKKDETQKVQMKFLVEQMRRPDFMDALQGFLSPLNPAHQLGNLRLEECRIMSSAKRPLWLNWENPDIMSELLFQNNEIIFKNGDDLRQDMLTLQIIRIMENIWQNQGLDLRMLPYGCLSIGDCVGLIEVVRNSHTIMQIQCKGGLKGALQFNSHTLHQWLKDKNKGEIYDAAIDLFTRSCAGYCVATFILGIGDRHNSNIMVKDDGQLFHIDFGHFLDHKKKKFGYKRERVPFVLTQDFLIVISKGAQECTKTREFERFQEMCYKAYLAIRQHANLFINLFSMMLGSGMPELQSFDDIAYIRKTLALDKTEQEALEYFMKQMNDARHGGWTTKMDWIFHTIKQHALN
T1 sequence (P27986 whole entry partner): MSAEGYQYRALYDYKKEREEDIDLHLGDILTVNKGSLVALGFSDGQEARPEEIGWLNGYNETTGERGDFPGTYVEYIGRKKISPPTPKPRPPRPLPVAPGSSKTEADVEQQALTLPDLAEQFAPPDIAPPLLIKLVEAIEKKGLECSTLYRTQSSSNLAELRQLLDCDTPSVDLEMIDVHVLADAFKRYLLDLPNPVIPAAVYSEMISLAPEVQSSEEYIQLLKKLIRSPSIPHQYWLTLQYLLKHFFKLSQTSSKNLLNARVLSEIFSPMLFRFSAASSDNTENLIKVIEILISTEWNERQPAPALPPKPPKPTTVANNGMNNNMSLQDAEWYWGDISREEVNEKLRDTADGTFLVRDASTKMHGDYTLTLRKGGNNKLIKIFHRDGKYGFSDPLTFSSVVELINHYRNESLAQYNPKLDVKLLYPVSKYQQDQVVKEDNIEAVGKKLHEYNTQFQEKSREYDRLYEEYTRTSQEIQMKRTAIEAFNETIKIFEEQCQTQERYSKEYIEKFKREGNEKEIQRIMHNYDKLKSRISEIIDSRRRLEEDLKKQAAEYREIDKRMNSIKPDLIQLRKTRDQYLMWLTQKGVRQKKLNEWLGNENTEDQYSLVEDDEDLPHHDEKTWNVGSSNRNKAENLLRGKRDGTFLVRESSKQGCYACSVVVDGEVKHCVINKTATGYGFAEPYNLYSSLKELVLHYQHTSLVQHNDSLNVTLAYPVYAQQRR
T2 sequence (P42336 whole entry E545K): as the sequence (P42336 whole entry H1047R) above, with E545K, R1047H counted along it
T2 sequence (P27986 whole entry partner): as the sequence (P27986 whole entry partner) above

| IC50 (PI3Kα H1047R) | IC50 (PI3Kα E545K [1]) | microsomal CLint at 1 μM [2] | IC50 (PI3Kα E545K [3]) | Compound |
| --- | --- | --- | --- | --- |
| < 100 nM | – | – | – | Cc1cc([C@@H](C)Oc2ccc(Cl)nc2-c2noc(=O)[nH]2)c2oc(-c3cnc4ccoc4c3)c(C)c(=O)c2c1 [Example 6C, 3-[6-Chloro-3-[(1R)-1-(2-furo[3,2-b]pyridin-6-yl-3,6-yl)ethoxy]-2-pyridyl]-4H-dimethyl-4-oxo-chromen-8-1,2,4-oxadiazol-5-one] |
| < 100 nM | – | – | – | Cc1cc([C@@H](C)Oc2ccccc2C(N)=O)c2oc(-c3ccc4nn(C)cc4c3)c(C)c(=O)c2c1 [Example 9A, 2-[(1R)-1-[3,6-Dimethyl-2-(2-methylindazol-5-yl)-4-oxo-chromen-8-yl]ethoxy]benzamide] |
| – | < 500 nM | < 50 µL/min/mg | – | Cc1cc([C@@H](C)Oc2ccc(Cl)nc2S(N)(=O)=O)c2oc(-c3ccc4nc(C)cn4n3)c(C)c(=O)c2c1 [Example 19C, 6-Chloro-3-[(1R)-1-[3,6-dimethyl-2-(2-methylimidazo[1,2-b]pyridazin-6-yl)-4-oxo-chromen-8-yl]ethoxy]pyridine-2-sulfonamide] |
| – | < 500 nM | < 50 µL/min/mg | – | Cc1cc([C@@H](C)Oc2ccc(Cl)nc2C(N)=O)c2oc(-c3cncc(F)c3)c(C)c(=O)c2c1 [Example 20A, 6-Chloro-3-[(1R)-1-[2-(5-fluoro-3-pyridyl)-3,6-dimethyl-4-oxo-chromen-8-yl]ethoxy]pyridine-2-carboxamide] |
| – | < 500 nM | < 50 µL/min/mg | – | CONC(=O)c1ncccc1O[C@H](C)c1cc(C)cc2c(=O)c(C)c(-c3ccc4nn(C)cc4c3)oc12 [Example 23A, 3-[(1R)-1-[3,6-Dimethyl-2-(2-methylindazol-5-yl)-4-oxo-chromen-8-yl]ethoxy]-N-methoxy-pyridine-2-carboxamide] |
| – | < 500 nM | < 50 µL/min/mg | < 500 nM | CONC(=O)c1nc(Cl)ccc1O[C@H](C)c1cc(C)cc2c(=O)c(C)c(-c3ccc4nn(C)cc4c3)oc12 [Example 26A, 6-Chloro-3-[(1R)-1-[3,6-dimethyl-2-(2-methylindazol-5-yl)-4-oxo-chromen-8-yl]ethoxy]-N-methoxy-pyridine-2-carboxamide] |
| < 100 nM | – | – | – | Cc1cc([C@@H](C)Oc2ccc(Cl)nc2S(N)(=O)=O)c2oc(-c3cnc4nonc4c3)c(C)c(=O)c2c1 [Example 30C, 6-Chloro-3-[(1R)-1-[3,6-dimethyl-2-([1,2,5]oxadiazolo[3,4-b]pyridin-6-yl)-4-oxo-chromen-8-yl]ethoxy]pyridine-2-sulfonamide] |
| < 100 nM | – | – | – | CONS(=O)(=O)c1nc(Cl)ccc1O[C@H](C)c1cc(C)cc2c(=O)c(C)c(-c3ccccc3)oc12 [Example 32A, 6-Chloro-3-[(1R)-1-(3,6-dimethyl-4-oxo-2-phenyl-chromen-8-yl)ethoxy]-N-methoxy-pyridine-2-sulfonamide] |
| – | < 500 nM | < 50 µL/min/mg | – | Cc1cc([C@@H](C)Oc2ccc(Cl)nc2C(N)=O)c2oc(-c3ccc4nn(C)cc4c3F)c(C)c(=O)c2c1 [Example 46C, 6-Chloro-3-[(1R)-1-[2-(4-fluoro-2-methyl-indazol-5-yl)-3,6-dimethyl-4-oxo-chromen-8-yl]ethoxy]pyridine-2-carboxamide] |
| – | < 500 nM | < 50 µL/min/mg | < 500 nM | Cc1cc([C@@H](C)Oc2ccc(Cl)nc2C(N)=O)c2oc(-c3ccc4nn(C(F)F)cc4c3)c(C)c(=O)c2c1 [Example 66A, 6-Chloro-3-[(1R)-1-[2-[2-(difluoromethyl)indazol-5-yl]-3,6-dimethyl-4-oxo-chromen-8-yl]ethoxy]pyridine-2-carboxamide] |
| – | < 500 nM | < 50 µL/min/mg | – | Cc1cc([C@@H](C)Oc2ccc(F)nc2S(N)(=O)=O)c2oc(C3CC3)c(C)c(=O)c2c1 [Example 109C, 3-[(1R)-1-(2-Cyclopropyl-3,6-dimethyl-4-oxo-chromen-8-yl)ethoxy]-6-fluoro-pyridine-2-sulfonamide] |
| – | < 500 nM | < 50 µL/min/mg | < 500 nM | Cc1cc([C@@H](C)Oc2ccc(F)c(F)c2S(N)(=O)=O)c2oc(-c3cnn(C)c3)c(C)c(=O)c2c1 [Example 110C, 6-[(1R)-1-[3,6-Dimethyl-2-(1-methylpyrazol-4-yl)-4-oxo-chromen-8-yl]ethoxy]-2,3-difluoro-benzenesulfonamide] |
| – | < 500 nM | < 50 µL/min/mg | < 500 nM | Cc1cc([C@@H](C)Oc2ccc(Cl)nc2S(N)(=O)=O)c2oc(-c3cn[nH]c3)c(C)c(=O)c2c1 [Example 115C, 6-Chloro-3-[(1R)-1-[3,6-dimethyl-4-oxo-2-(1H-pyrazol-4-yl)chromen-8-yl]ethoxy]pyridine-2-sulfonamide] |
| – | < 500 nM | < 50 µL/min/mg | < 500 nM | Cc1cc([C@@H](C)Oc2ccc(Cl)nc2S(N)(=O)=O)c2oc(-c3cnn(CCC(F)F)c3)c(C)c(=O)c2c1 [Example 119C, 6-Chloro-3-[(1R)-1-[2-[1-(3,3-difluoropropyl)pyrazol-4-yl]-3,6-dimethyl-4-oxo-chromen-8-yl]ethoxy]pyridine-2-sulfonamide] |
| – | < 500 nM | < 50 µL/min/mg | – | Cc1cc([C@@H](C)Oc2ccc(Cl)nc2C(N)=O)c2oc(-c3cc4cn(C)nc4cn3)c(C)c(=O)c2c1 [Example 128A, 6-Chloro-3-[(1R)-1-[3,6-dimethyl-2-(2-methylpyrazolo[3,4-c]pyridin-5-yl)-4-oxo-chromen-8-yl]ethoxy]pyridine-2-carboxamide] |
| – | < 500 nM | – | < 500 nM | Cc1cc([C@@H](C)Oc2ccc(Cl)nc2C(N)=O)c2oc(-c3ccc4nn([C@H]5C[C@@H](O)C5)cc4c3)c(C)c(=O)c2c1 [Example 133C, 6-Chloro-3-[(1R)-1-[2-[2-(3-hydroxycyclobutyl)indazol-5-yl]-3,6-dimethyl-4-oxo-chromen-8-yl]ethoxy]pyridine-2-carboxamide] |
| – | < 500 nM | < 50 µL/min/mg | – | Cc1cc([C@@H](C)Oc2ccc(Cl)nc2C(N)=O)c2oc(-c3ccc4nn(C)cc4n3)c(C)c(=O)c2c1 [Example 141A, 6-Chloro-3-[(1R)-1-[3,6-dimethyl-2-(2-methylpyrazolo[4,3-b]pyridin-5-yl)-4-oxo-chromen-8-yl]ethoxy]pyridine-2-carboxamide] |
